Experimental data reported in PubChem BioAssay AID1845199 (Molecular Pharmacology Branch, DTP, NCI, 2023).

System: 556581-035-R-J1 tumor spheroid viability, % test/control
Assay: Anticancer human tumor 556581-035-R-J1 patient-derived ovarian carcinoma cell line growth inhibition
Details: spheroids with HUVEC and MSC; for IC50: curve of first compound; for viability, T/C: stronger effect = lower value; active means viability on the fitted dose curve at most 10% of control; inactive means the rest
Summary of the method: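 Single agents and combinations were tested on spheroids built from tumor cells plus HUVEC and hMSC, at half-log dilutions starting at or near clinical Cmax, else 10 microM; final DMSO 0.25% (v/v).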
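Further: spheroids exposed to compounds for 7 days before viability read.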

Cn1ncnc1[C@H]1c2n[nH]c(=O)c3cc(F)cc(c23)N[C@@H]1c1ccc(F)cc1 + COc1cc2c(cc1O)CCNC21CSC2c3c(OC(C)=O)c(C)c4c(c3C(COC1=O)N1C(O)C3Cc5cc(C)c(OC)c(O)c5C(C21)N3C)OCO4
2230 nM: IC50 (second compound 0.0003 µM)
active: viability, T/C (second compound 0.000949 µM, first compound 3 µM) 1.54% | viability, T/C (second compound 0.003 µM, first compound 0.00949 µM) 0.96% | viability, T/C (second compound 0.003 µM, first compound 0.03 µM) 0.99% | viability, T/C (second compound 0.003 µM, first compound 0.0949 µM) 0.97% | viability, T/C (second compound 0.003 µM, first compound 0.3 µM) 1.34% | viability, T/C (second compound 0.003 µM, first compound 0.949 µM) 1.27% | viability, T/C (second compound 0.003 µM, first compound 3 µM) 1.68%
inactive: viability, T/C (second compound 30 pM, first compound 0.00949 µM) 100% | viability, T/C (second compound 30 pM, first compound 0.03 µM) 96.7% | viability, T/C (second compound 30 pM, first compound 0.0949 µM) 93.5% | viability, T/C (second compound 30 pM, first compound 0.3 µM) 86.7% | viability, T/C (second compound 30 pM, first compound 0.949 µM) 74.5% | viability, T/C (second compound 30 pM, first compound 3 µM) 58.7% | viability, T/C (second compound 94.9 pM, first compound 0.00949 µM) 99.7% | viability, T/C (second compound 94.9 pM, first compound 0.03 µM) 97.7% | viability, T/C (second compound 94.9 pM, first compound 0.0949 µM) 89.5% | viability, T/C (second compound 94.9 pM, first compound 0.3 µM) 84.9% | viability, T/C (second compound 94.9 pM, first compound 0.949 µM) 69.7% | viability, T/C (second compound 94.9 pM, first compound 3 µM) 51.7% | viability, T/C (second compound 0.0003 µM, first compound 0.00949 µM) 85.6% | viability, T/C (second compound 0.0003 µM, first compound 0.03 µM) 91.8% | viability, T/C (second compound 0.0003 µM, first compound 0.0949 µM) 84.1% | viability, T/C (second compound 0.0003 µM, first compound 0.3 µM) 79.1% | viability, T/C (second compound 0.0003 µM, first compound 0.949 µM) 68.7% | viability, T/C (second compound 0.0003 µM, first compound 3 µM) 43.4% | viability, T/C (second compound 0.000949 µM, first compound 0.00949 µM) 39.6% | viability, T/C (second compound 0.000949 µM, first compound 0.03 µM) 33.9% | viability, T/C (second compound 0.000949 µM, first compound 0.0949 µM) 31.8% | viability, T/C (second compound 0.000949 µM, first compound 0.3 µM) 28.1% | viability, T/C (second compound 0.000949 µM, first compound 0.949 µM) 7.63%
< 9.49 nM: IC50 (second compound 0.000949 µM) | IC50 (second compound 0.003 µM)
> 3000 nM: IC50 (second compound 30 pM) | IC50 (second compound 94.9 pM)

Cn1ncnc1[C@H]1c2n[nH]c(=O)c3cc(F)cc(c23)N[C@@H]1c1ccc(F)cc1 + Cn1nnc2c(C(N)=O)ncn2c1=O
> 3000 nM: IC50 (second compound 1 µM) | IC50 (second compound 3.16 µM) | IC50 (second compound 10 µM)
1240 nM: IC50 (second compound 100 µM)
inactive: viability, T/C (second compound 1 µM, first compound 0.00949 µM) 99.5% | viability, T/C (second compound 1 µM, first compound 0.03 µM) 93.1% | viability, T/C (second compound 1 µM, first compound 0.0949 µM) 87.3% | viability, T/C (second compound 1 µM, first compound 0.3 µM) 75.5% | viability, T/C (second compound 1 µM, first compound 0.949 µM) 67.6% | viability, T/C (second compound 1 µM, first compound 3 µM) 51.1% | viability, T/C (second compound 3.16 µM, first compound 0.00949 µM) 102% | viability, T/C (second compound 3.16 µM, first compound 0.03 µM) 89.7% | viability, T/C (second compound 3.16 µM, first compound 0.0949 µM) 87.7% | viability, T/C (second compound 3.16 µM, first compound 0.3 µM) 73.9% | viability, T/C (second compound 3.16 µM, first compound 0.949 µM) 67.8% | viability, T/C (second compound 3.16 µM, first compound 3 µM) 50.2% | viability, T/C (second compound 10 µM, first compound 0.00949 µM) 94% | viability, T/C (second compound 10 µM, first compound 0.03 µM) 88.7% | viability, T/C (second compound 10 µM, first compound 0.0949 µM) 85.8% | viability, T/C (second compound 10 µM, first compound 0.3 µM) 76.6% | viability, T/C (second compound 10 µM, first compound 0.949 µM) 66% | viability, T/C (second compound 10 µM, first compound 3 µM) 52.2% | viability, T/C (second compound 31.6 µM, first compound 0.00949 µM) 86.4% | viability, T/C (second compound 31.6 µM, first compound 0.03 µM) 74.4% | viability, T/C (second compound 31.6 µM, first compound 0.0949 µM) 77.9% | viability, T/C (second compound 31.6 µM, first compound 0.3 µM) 68.3% | viability, T/C (second compound 31.6 µM, first compound 0.949 µM) 62.3% | viability, T/C (second compound 31.6 µM, first compound 3 µM) 43% | viability, T/C (second compound 100 µM, first compound 0.00949 µM) 74.4% | viability, T/C (second compound 100 µM, first compound 0.03 µM) 71.8% | viability, T/C (second compound 100 µM, first compound 0.0949 µM) 70.4% | viability, T/C (second compound 100 µM, first compound 0.3 µM) 65.9% | viability, T/C (second compound 100 µM, first compound 0.949 µM) 54.7% | viability, T/C (second compound 100 µM, first compound 3 µM) 34%
1950 nM: IC50 (second compound 31.6 µM)
